From US7812008B2, “9-substituted tetracyclines” (Wyeth LLC, priority 2005, dated 2010)
In brackets after ≈: the same amount, converted by molar mass. Read-outs that look alike come from different tables or passages of the source.

Tests used:
[1] = tested on: E. coli GC2203 (ATCC Control); test: MIC broth microdilution, E. coli GC2203 (ATCC Control); assay type: cell-based; conditions: MHBII, 18-22 hours at 35° C.
Description: (§1) Methods for in Vitro Antibacterial Evaluation
(§2) The minimum inhibitory concentration (MIC)
(§3) Antimicrobial susceptibility testing. The in vitro activities of representative examples of antibiotics of the invention are determined by the broth microdilution method as recommended by the National Committee for Clinical Laboratory Standards (NCCLS) (1). Mueller-Hinton II broth (MHBII)(BBL Cockeysville, Md.) is the medium employed in the testing procedures. Microtiter plates containing serial dilutions of each antimicrobial agent are inoculated with each organism to yield the appropriate density (10^5 CFU/ml) in a 100 μl final volume. The plates are incubated for 18-22 hours at 35° C. in ambient air. […] NCCLS. 2000. Methods for Dilution Antimicrobial Susceptibility Tests for Bacteria That Grow Aerobically; Approved Standards: M7-A5, vol. 20. National Committe for Clinical Laboratory Standards, Wayne, Pa.

[2] = tested on: S. aureus GC2216 (ATCC Control); test: MIC broth microdilution, S. aureus GC2216 (ATCC Control); assay type: cell-based; conditions: MHBII, 18-22 hours at 35° C.
Description: as §1, §2, §3

[3] = tested on: C. albicans GC3066 ATCC (Control); test: MIC broth microdilution, C. albicans GC3066 ATCC (Control); assay type: cell-based; conditions: 18-22 hours at 35° C.
Description: as §1, §2, §3

[4] = tested on: S. aureus GC6467 (tet(M) + (K)); test: MIC broth microdilution, S. aureus GC6467 (tet(M) + (K)); assay type: cell-based; conditions: MHBII, 18-22 hours at 35° C.
Description: as §1, §2, §3

[5] = tested on: E. coli GC2270 (tet(M)); test: MIC broth microdilution, E. coli GC2270 (tet(M)); assay type: cell-based; conditions: MHBII, 18-22 hours at 35° C.
Description: as §1, §2, §3

[6] = tested on: E. faecalis GC2267 (tet(L) + (M) + (S)); test: MIC broth microdilution, E. faecalis GC2267 (tet(L) + (M) + (S)); assay type: cell-based; conditions: MHBII, 18-22 hours at 35° C.
Description: as §1, §2, §3

[7] = tested on: Staphylococcal aureus Smith M P; test: MIC reported in Table 2 beside the in vivo ED50; assay type: cell-based; conditions: Staphylococcus aureus, infecting strain S. aureus Smith MP
Description: Antimicrobial susceptibility testing. The in vitro activities of representative examples of antibiotics of the invention are determined by the broth microdilution method as recommended by the National Committee for Clinical Laboratory Standards (NCCLS) (1). Mueller-Hinton II broth (MHBII)(BBL Cockeysville, Md.) is the medium employed in the testing procedures. Microtiter plates containing serial dilutions of each antimicrobial agent are inoculated with each organism to yield the appropriate density (10^5 CFU/ml) in a 100 μl final volume. The plates are incubated for 18-22 hours at 35° C. in ambient air. […] NCCLS. 2000. Methods for Dilution Antimicrobial Susceptibility Tests for Bacteria That Grow Aerobically; Approved Standards: M7-A5, vol. 20. National Committe for Clinical Laboratory Standards, Wayne, Pa. In Vivo Antibacterial Evaluation: The therapeutic effects of representative examples of the invention are determined against acute lethal infection with Staphylococcal aureus Smith M P, Female mice, strain CD-1 (Charles River Laboratoties), ca. 20 grams, are challenged by an intraperitoneal injection of sufficient bacteria (suspended in broth or hog mucin) to kill non-treated controls within 24-28 hours. Antibacterial agents, contained in 0.5 ml of 0.2% aqueous agar, are administered subcutaneously or orally 30 minutes after injection. When an oral dosing schedule is used, animal are deprived of food for 5 hours before and 2 hours after injection. Five mice are treated at each dose level. The 7 day survival ratios from 3 separate tests are pooled for calculation of median effective dose (ED50).

[8] = tested on: E. coli GC4560 (IMP mutant); test: MIC broth microdilution, E. coli GC4560 (IMP mutant); assay type: cell-based; conditions: MHBII, 18-22 hours at 35° C.
Description: as §1, §2, §3

[9] = tested on: M. catarrhalis* GC6907 (Clinical); test: MIC broth microdilution, M. catarrhalis GC6907 (Clinical); assay type: cell-based; conditions: 18-22 hours at 35° C.
Description: as §1, §2, §3

[10] = tested on: S. aureus GC6466 (tet(M)); test: MIC broth microdilution, S. aureus GC6466 (tet(M)); assay type: cell-based; conditions: MHBII, 18-22 hours at 35° C.
Description: as §1, §2, §3

[11] = tested on: S. aureus GC1131 (Clinical); test: MIC broth microdilution, S. aureus GC1131 (Clinical); assay type: cell-based; conditions: MHBII, 18-22 hours at 35° C.
Description: as §1, §2, §3

[12] = tested on: S. aureus GC1079 (tet(K)); test: MIC broth microdilution, S. aureus GC1079 (tet(K)); assay type: cell-based; conditions: MHBII, 18-22 hours at 35° C.
Description: as §1, §2, §3

[13] = tested on: S. aureus GC4536 (Smith MP -In Vivo); test: MIC broth microdilution, S. aureus GC4536 (Smith MP -In Vivo); assay type: cell-based; conditions: MHBII, 18-22 hours at 35° C.
Description: as §1, §2, §3

[14] = tested on: S. pneumoniae* GC4465 (Clinical); test: MIC broth microdilution, S. pneumoniae GC4465 (Clinical); assay type: cell-based; conditions: 18-22 hours at 35° C.
Description: as §1, §2, §3

[15] = tested on: E. coli GC4559 (parent GC4560); test: MIC broth microdilution, E. coli GC4559 (parent GC4560); assay type: cell-based; conditions: MHBII, 18-22 hours at 35° C.
Description: as §1, §2, §3

[16] = tested on: S. pneumoniae* GC1894 (Clinical); test: MIC broth microdilution, S. pneumoniae GC1894 (Clinical); assay type: cell-based; conditions: 18-22 hours at 35° C.
Description: as §1, §2, §3

[17] = tested on: Staphylococcal aureus Smith M P; test: In vivo antibacterial evaluation, acute lethal infection in mice; conditions: Mus musculus; single oral dose 30 minutes after intraperitoneal challenge; female CD-1 mice; 7 day survival ratios, 3 tests pooled; read-out: SOD* ED50
Description: In Vivo Antibacterial Evaluation: The therapeutic effects of representative examples of the invention are determined against acute lethal infection with Staphylococcal aureus Smith M P, Female mice, strain CD-1 (Charles River Laboratoties), ca. 20 grams, are challenged by an intraperitoneal injection of sufficient bacteria (suspended in broth or hog mucin) to kill non-treated controls within 24-28 hours. Antibacterial agents, contained in 0.5 ml of 0.2% aqueous agar, are administered subcutaneously or orally 30 minutes after injection. When an oral dosing schedule is used, animal are deprived of food for 5 hours before and 2 hours after injection. Five mice are treated at each dose level. The 7 day survival ratios from 3 separate tests are pooled for calculation of median effective dose (ED50).

[18] = tested on: Staphylococcal aureus Smith M P; test: as above; conditions: Mus musculus, iv, 168 h; single intraveneous dose; female CD-1 mice; 7 day survival ratios, 3 tests pooled; read-out: SIV* ED50
[19] = tested on: H. influenzae<> GC6896 (ATCC Control); test: MIC broth microdilution, H. influenzae GC6896 (ATCC Control); assay type: cell-based; conditions: 18-22 hours at 35° C.
Description: as §1, §2, §3

[20] = tested on: E. faecalis GC2242 (Van-resistant); test: MIC broth microdilution, E. faecalis GC2242 (Van-resistant); assay type: cell-based; conditions: MHBII, 18-22 hours at 35° C.
Description: as §1, §2, §3

[21] = tested on: S. pyogenes* GC4563 (Clinical); test: MIC broth microdilution, S. pyogenes GC4563 (Clinical); assay type: cell-based; conditions: 18-22 hours at 35° C.
Description: as §1, §2, §3

[22] = tested on: E. faecalis GC4555 (ATCC Control); test: MIC broth microdilution, E. faecalis GC4555 (ATCC Control); assay type: cell-based; conditions: MHBII, 18-22 hours at 35° C.
Description: as §1, §2, §3

[23] = tested on: E. coli GC1073 (tet(B)); test: MIC broth microdilution, E. coli GC1073 (tet(B)); assay type: cell-based; conditions: MHBII, 18-22 hours at 35° C.
Description: as §1, §2, §3

Compound	minimum inhibitory concentration (MIC) [1]	minimum inhibitory concentration (MIC) [2]	minimum inhibitory concentration (MIC) [3]	minimum inhibitory concentration (MIC) [4]	minimum inhibitory concentration (MIC) [5]	minimum inhibitory concentration (MIC) [6]	MIC [7]	minimum inhibitory concentration (MIC) [8]	minimum inhibitory concentration (MIC) [9]	minimum inhibitory concentration (MIC) [10]	minimum inhibitory concentration (MIC) [11]	minimum inhibitory concentration (MIC) [12]	minimum inhibitory concentration (MIC) [13]	minimum inhibitory concentration (MIC) [14]	minimum inhibitory concentration (MIC) [15]	minimum inhibitory concentration (MIC) [16]	ED50 [17]	ED50 [18]	minimum inhibitory concentration (MIC) [19]	minimum inhibitory concentration (MIC) [20]	other results
CONCC(=O)Nc1cc(N(C)C)c2c(c1O)C(=O)C1=C(O)[C@]3(O)C(=O)C(C(N)=O)=C(O)[C@@H](N(C)C)[C@@H]3C[C@@H]1C2 [Example 5, (4S,4aS,5aR,12aS)-4,7-bis(dimethylamino)-3,10,12,12a-tetrahydroxy-9-[(N-methoxyglycyl)amino]-1,11-dioxo-1,4,4a,5,5a,6,11,12a-octahydrotetracene-2-carboxamide]	2	1	>64	4	4	4	1 µg/mL (≈ 1.79 µM)	0.25	0.25	1	1	2	1	0.12	4	0.25	16 to 32 mg/kg	0.5 to 1 mg/kg	2	2	minimum inhibitory concentration (MIC) [21]: 0.25; minimum inhibitory concentration (MIC) [22]: 1; minimum inhibitory concentration (MIC) [23]: 4
CN(C)c1cc(NC(=O)CN2CCCCO2)c(O)c2c1C[C@H]1C[C@H]3[C@H](N(C)C)C(O)=C(C(N)=O)C(=O)[C@@]3(O)C(O)=C1C2=O [Example 8, (4S,4aS,5aR,12aS)-4,7-bis(dimethylamino)-3,10,12,12a-tetrahydroxy-9-[(1,2-oxazinan-2-ylacetyl)amino]-1,11-dioxo-1,4,4a,5,5a,6,11,12a-octahydrotetracene-2-carboxamide]	>64	2	>64	64	>64	8	2 µg/mL (≈ 3.34 µM)	2	1	2	4	16	2	1	>64	0.50	3.59 mg/kg	0.56 mg/kg	64	2	minimum inhibitory concentration (MIC) [21]: 1; minimum inhibitory concentration (MIC) [22]: 2; minimum inhibitory concentration (MIC) [23]: >64
CON(C)CC(=O)Nc1cc(N(C)C)c2c(c1O)C(=O)C1=C(O)[C@]3(O)C(=O)C(C(N)=O)=C(O)[C@@H](N(C)C)[C@@H]3C[C@@H]1C2 [Example 7, (4S,4aS,5aR,12aS)-4,7-bis(dimethylamino)-3,10,12,12a-tetrahydroxy-9-[(N-methoxy-N-methylglycyl)amino]-1,11-dioxo-1,4,4a,5,5a,6,11,12a-octahydrotetracene-2-carboxamide]	>64	2	>64	>64	>64	8	2 µg/mL (≈ 3.49 µM)	1	0.50	2	4	32	2	0.50	>64	0.50	16 to 32 mg/kg	0.5 to 2 mg/kg	4	2	minimum inhibitory concentration (MIC) [21]: 0.25; minimum inhibitory concentration (MIC) [22]: 1; minimum inhibitory concentration (MIC) [23]: >64
